# Measurements: PubChem BioAssay AID504568 (NMMLSC, 2011)
# The source made the active and inactive calls.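 How the source made its calls: active means binding readouts below 60% of the midpoint between blocked and unblocked controls, with summed weighted score above 1; inactive means the rest.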
# Tested on: 2C TCR mouse CD8+ T cells, vesicle binding, flow cytometry
# Assay: modulators of T cell-vesicle binding via LFA-1, confirmation, powder samples, single concentration, mouse 2C TCR, flow cytometry (AID 504568);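 further: lower values mean less vesicle binding and point to an inhibitor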;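 on double-positive events (T cell-vesicle binding): the gate for binding is set so anti-LFA-1 blocked control wells show 10% double positives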
# Conditions: stronger effect = lower value
row,Compound,double-positive events (T cell-vesicle binding)
1,O=C(COC(=O)C12CC3CC(CC(Br)(C3)C1)C2)Nc1cccc(S(=O)(=O)N2CCOCC2)c1,13.9%
2,CCC(C(=O)Nc1ccccc1)c1ccccc1 (configuration not stated),24.6%
3,CCN(CC)CCNC(=O)CCCNC(=O)Cn1cnc2sc(C)c(C)c2c1=O,30.9% (inactive)
4,COc1ccc(C2=Nc3cc(C)ccc3OC2)cc1,26.7% (inactive)
5,CC(C)(C)NC(=O)COc1ccc(CNCc2cccnc2)cc1,25.7% (inactive)
6,Cc1cc(=O)oc2c3c(cc(OCC(=O)NCc4ccncc4)c12)OC(C)(C)CC3,20.8%
7,CCCCOc1ccc(C(=O)NCC(=O)N2CCN(C(=O)c3ccco3)CC2)cc1,25.2%
8,CCCCn1nc(C(=O)N2CCN(S(=O)(=O)c3ccccc3)CC2)c2ccccc2c1=O,28.1% (inactive)
9,O=C(CS(=O)(=O)Cc1ccccc1)N1CCc2ccccc21,25.6% (inactive)
10,COc1ccc(C(O)c2coc3ccc(O)c(CN(C)C)c23)cc1 (configuration not stated),21.7% (inactive)
11,CC1CCCCC1NC(=O)COC(=O)c1ccc2ncsc2c1 (configuration not stated),19.9%
12,O=C(CCC(=O)N1CCOCC1)NCc1cccc(C(F)(F)F)c1,24.3% (inactive)
13,Cc1ccc(S(=O)(=O)N2CCN(S(=O)(=O)N(C)C)CC2)c(C)c1,24.7%
14,COc1ccc(N2CC(C(=O)NC(C)C(=O)NCc3ccccc3OC)CC2=O)cc1 (configuration not stated),27.3% (inactive)
15,O=C(NNS(=O)(=O)c1ccc2ccccc2c1)c1cccs1,23.5% (inactive)
16,O=C(NCCC1=CCCCC1)C(=O)NCC(c1ccco1)N1CCN(c2ccccc2F)CC1 (configuration not stated),26.1% (inactive)
17,Cc1ccc(OCCOC(=O)c2cc(S(=O)(=O)N3CCCCC3)ccc2N2CCOCC2)cc1,20.9%
18,O=C(O)C1CCC(Cn2c(SCc3cc(=O)n4cc(Cl)ccc4n3)nc3ccsc3c2=O)CC1 (configuration not stated),19.5%
19,CC(=O)c1ccc(-c2csc(N3CCC(C(N)=O)CC3)n2)cc1,26.5% (inactive)
20,COc1ccc(NC(=O)CC2C(=O)N(Cc3ccccc3)C(=S)N2CCN2CCOCC2)cc1 (configuration not stated),28.8% (inactive)
21,Cc1sc2ncnc(NCC(C)(C)N3CCOCC3)c2c1C,20.2%
22,CN(C)S(=O)(=O)c1cccc(-n2sc3ccccc3c2=O)c1,17.7%
23,COc1ccc(S(=O)(=O)N2CCCCC2)cc1NC(=O)c1cnc(C)cn1,26.7% (inactive)
24,c1ccc(COc2ccc(OCCN3CCCCC3)cc2)cc1,20.7%
25,CN1CCN(S(=O)(=O)c2cccc(C(=O)Nc3cc(C(F)(F)F)ccc3N3CCCCC3)c2)CC1,21.7%
26,CCOC(=O)c1c(C=O)c2ccccc2n1CC,20.5%

# Same assay, conditions: measured here: CD8+ cell vesicle fluorescence mean, stronger effect = lower value
row,Compound,mean fluorescence percent response [%]
1,O=C(COC(=O)C12CC3CC(CC(Br)(C3)C1)C2)Nc1cccc(S(=O)(=O)N2CCOCC2)c1,91.1
2,CCC(C(=O)Nc1ccccc1)c1ccccc1 (configuration not stated),131
3,CCN(CC)CCNC(=O)CCCNC(=O)Cn1cnc2sc(C)c(C)c2c1=O,196
4,COc1ccc(C2=Nc3cc(C)ccc3OC2)cc1,140
5,CC(C)(C)NC(=O)COc1ccc(CNCc2cccnc2)cc1,148
6,Cc1cc(=O)oc2c3c(cc(OCC(=O)NCc4ccncc4)c12)OC(C)(C)CC3,128
7,CCCCOc1ccc(C(=O)NCC(=O)N2CCN(C(=O)c3ccco3)CC2)cc1,133
8,CCCCn1nc(C(=O)N2CCN(S(=O)(=O)c3ccccc3)CC2)c2ccccc2c1=O,145
9,O=C(CS(=O)(=O)Cc1ccccc1)N1CCc2ccccc21,159
10,COc1ccc(C(O)c2coc3ccc(O)c(CN(C)C)c23)cc1 (configuration not stated),162
11,CC1CCCCC1NC(=O)COC(=O)c1ccc2ncsc2c1 (configuration not stated),111
12,O=C(CCC(=O)N1CCOCC1)NCc1cccc(C(F)(F)F)c1,133
13,Cc1ccc(S(=O)(=O)N2CCN(S(=O)(=O)N(C)C)CC2)c(C)c1,139
14,COc1ccc(N2CC(C(=O)NC(C)C(=O)NCc3ccccc3OC)CC2=O)cc1 (configuration not stated),177
15,O=C(NNS(=O)(=O)c1ccc2ccccc2c1)c1cccs1,149
16,O=C(NCCC1=CCCCC1)C(=O)NCC(c1ccco1)N1CCN(c2ccccc2F)CC1 (configuration not stated),116
17,Cc1ccc(OCCOC(=O)c2cc(S(=O)(=O)N3CCCCC3)ccc2N2CCOCC2)cc1,134
18,O=C(O)C1CCC(Cn2c(SCc3cc(=O)n4cc(Cl)ccc4n3)nc3ccsc3c2=O)CC1 (configuration not stated),128
19,CC(=O)c1ccc(-c2csc(N3CCC(C(N)=O)CC3)n2)cc1,153
20,COc1ccc(NC(=O)CC2C(=O)N(Cc3ccccc3)C(=S)N2CCN2CCOCC2)cc1 (configuration not stated),149
21,Cc1sc2ncnc(NCC(C)(C)N3CCOCC3)c2c1C,126
22,CN(C)S(=O)(=O)c1cccc(-n2sc3ccccc3c2=O)c1,109
23,COc1ccc(S(=O)(=O)N2CCCCC2)cc1NC(=O)c1cnc(C)cn1,173
24,c1ccc(COc2ccc(OCCN3CCCCC3)cc2)cc1,133
25,CN1CCN(S(=O)(=O)c2cccc(C(=O)Nc3cc(C(F)(F)F)ccc3N3CCCCC3)c2)CC1,105
26,CCOC(=O)c1c(C=O)c2ccccc2n1CC,148
